The values below come from PMC9225722, “Synthesis and biological evaluation of thieno[3,2-c]pyrazol-3-amine derivatives as potent glycogen synthase kinase 3β inhibitors for Alzheimer’s disease” (Journal of Enzyme Inhibition and Medicinal Chemistry, 2022).

One series addresses GSK-3β (Homo sapiens, UniProt P49841). As to the kind of experiment: GSK-3β kinase assay (calliper mobility shift assay). It is filed as biochemical. The settings on record: for IC50: mean ± SD from two separate experiments, calliper mobility shift assay; for fold less active than 16b (GSK-3β inhibition): compared with 16b.
The test system of series [1] is phosphorylation of GSK-3β at Ser9. In words: Western blot of p-GSK-3β (Ser9) in SH-SY5Y cells. It is filed as cell-based, human. Conditions: LiCl positive control, concentration not given; 2.5 h; control 0.33. The text has this: GSK-3β is activated by phosphorylation at Tyr216 and is inhibited by phosphorylation at Ser9 [48]. As one of the substrates of Akt (protein kinase B), GSK-3 can inhibit Akt[49]. The inhibition of GSK-3β increases the p-Akt expression and activates the PI3K/Akt pathway, and that, in turn, phosphorylates the GSK-3β at the Ser9 site[50]^,[51]. […] As shown in Figure 6(A), LiCl greatly promoted GSK-3β phosphorylation at Ser9 (p-GSK-3β/GAPDH: 0.60 vs 0.33). […] Therefore, in cellular level, compound 16b was confirmed to have a direct effect on GSK-3β.
Figure 6. (A) The effect of 16b on phosphorylation of GSK-3β at Ser9; (B) the effect of 16b on β-catenin abundance. Protein expressions were detected by immunoblot analysis with a specific antibody. Values are reported as the mean ± SD of three independent experiments. *p < 0.05, **p < 0.01, ***p < 0.001 vs control.
SH-SY5Y cells (1 × 10^6) were seeded in 12-well plates (Corning, Los Altos, MA, USA) and incubated with compound 16b or LiCl at the indicated concentrations for 2.5 h at 37 °C in 5% CO2. At the end of incubation, cells were lysed by addition of ice-cold RIPA buffer containing a protease inhibitor cocktail. The protein quantification was determined using a BCA protein assay kit (Jiangsu KeyGEN BioTECH Co., Ltd., Nanjing, China). Cellular lysates were mixed with an equal volume of SDS (sodium dodecyl sulfate) loading buffer (Jiangsu KeyGEN BioTECH Co., Ltd., Nanjing, China) and separated by electrophoresis (Bio-rad Power Supplies Basic, Shanghai, China) in polyacrylamide gel. Proteins were transferred from acrylamide gels to nitrocellulose membranes and blocked in a blocking buffer (PBS, 5% non-fat milk) for 1.5 to 2 h at 20 °C. […] The blots were washed by TBST for 20 min and detected with ECL chemiluminescent reagent (Jiangsu KeyGEN BioTECH Co., Ltd., Nanjing, China) for 3 min. Pixel intensity was quantitated using gel imaging system (SYNGENE G:BOX/iChemi XR5, ISS, San Diego, CA, US) and Gel-Pro32 software (Media Cybernetics, Bethesda, MD, USA). […]

Chain of GSK-3β (P49841 whole entry): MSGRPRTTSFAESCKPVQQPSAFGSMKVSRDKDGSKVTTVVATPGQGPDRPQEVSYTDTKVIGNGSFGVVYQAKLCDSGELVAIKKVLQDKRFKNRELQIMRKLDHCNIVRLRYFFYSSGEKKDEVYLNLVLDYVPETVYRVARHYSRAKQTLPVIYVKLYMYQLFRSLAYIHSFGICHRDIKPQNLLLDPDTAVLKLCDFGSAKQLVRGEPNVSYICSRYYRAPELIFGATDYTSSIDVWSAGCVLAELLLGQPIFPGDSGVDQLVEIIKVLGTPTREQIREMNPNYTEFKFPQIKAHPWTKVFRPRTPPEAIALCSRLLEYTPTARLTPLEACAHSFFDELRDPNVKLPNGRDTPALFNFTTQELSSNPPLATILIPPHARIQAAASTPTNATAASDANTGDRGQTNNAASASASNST

In the case of `CC(C)C(=O)Nc1n[nH]c2cc(-c3cnccc3-c3cccc(C(F)(F)F)c3)sc12` [Compound 18k, N-(5-(4-(3-(trifluoromethyl)phenyl)pyridin-3-yl)-1H-thieno[3,2-c]pyrazol-3-yl)isobutyramide], the melting point fell in the range of 202 to 204 °C. On GSK-3β, the IC50 amounted to 107 ± 6.1 nM.

With `CCCC(=O)Nc1n[nH]c2cc(-c3cncc(-c4ccccc4)c3)sc12` [Compound 17c, N-(5-(5-Phenylpyridin-3-yl)-1H-thieno[3,2-c]pyrazol-3-yl)butyramide], the melting point is > 240 °C. Also, the IC50 on GSK-3β was found to be 37 ± 1.3 nM.

With `COc1ccccc1-c1ccncc1-c1cc2[nH]nc(NC(=O)C(C)C)c2s1` [Compound 18e, N-(5-(4-(2-Methoxyphenyl)pyridin-3-yl)-1H-thieno[3,2-c]pyrazol-3-yl)isobutyramide], the melting point fell in the range of 213 to 215 °C. For the same compound, the 50% inhibitory concentration (IC50) at GSK-3β was determined as 64 ± 2.7 nM.

Consider `CC(C)C(=O)Nc1n[nH]c2cc(-c3cnccc3-c3ccccc3F)sc12` [Compound 18h, N-(5-(4-(2-Fluorophenyl)pyridin-3-yl)-1H-thieno[3,2-c]pyrazol-3-yl)isobutyramide], for which the melting point was > 240 °C. Moreover, on GSK-3β, the IC50 was 94 ± 3.5 nM.

On to `O=C(Nc1n[nH]c2cc(-c3cncc(-c4ccccc4)c3)sc12)C1CC1` [Compound 17a, N-(5-(5-Phenylpyridin-3-yl)-1H-thieno[3,2-c]pyrazol-3-yl)cyclopropanecarboxamide], for which the melting point is > 240 °C. Also, on GSK-3β (compared with 16a), the “fold less active than 16a (GSK-3β inhibition)” value is recorded as “about 4 fold”. At GSK-3β, the IC50 is 20 ± 1.1 nM.

Turning to `COc1ccc(-c2ccncc2-c2cc3[nH]nc(NC(=O)C(C)C)c3s2)cc1` [Compound 18g, N-(5-(4-(4-Methoxyphenyl)pyridin-3-yl)-1H-thieno[3,2-c]pyrazol-3-yl)isobutyramide], the melting point is > 240 °C. For the same compound, on GSK-3β, the IC50 was determined as 105 ± 5.2 nM.

`COc1cccc(-c2ccncc2-c2cc3[nH]nc(NC(=O)C(C)C)c3s2)c1` [Compound 18f, N-(5-(4-(3-Methoxyphenyl)pyridin-3-yl)-1H-thieno[3,2-c]pyrazol-3-yl)isobutyramide] yielded a melting point of 212 to 214 °C. Further, the IC50 on GSK-3β amounted to 113 ± 8.6 nM.

As for `CC(C)C(=O)Nc1n[nH]c2cc(-c3cnccc3-c3ccc(C(F)(F)F)cc3)sc12` [Compound 18l, N-(5-(4-(4-(trifluoromethyl)phenyl)pyridin-3-yl)-1H-thieno[3,2-c]pyrazol-3-yl)isobutyramide], the melting point is > 240 °C. Also, at GSK-3β, the IC50 was found to be 158 ± 8.9 nM.

`Cc1ccccc1-c1ccncc1-c1cc2[nH]nc(NC(=O)C(C)C)c2s1` [Compound 18b, N-(5-(4-(2-Methylphenyl)pyridin-3-yl)-1H-thieno[3,2-c]pyrazol-3-yl)isobutyramide]: the melting point is > 240 °C. Moreover, the IC50 on GSK-3β was determined as 64 ± 2.3 nM.

On to `CC(C)C(=O)Nc1n[nH]c2cc(-c3cnccc3-c3ccc(F)cc3)sc12` [Compound 18j, N-(5-(4-(4-Fluorophenyl)pyridin-3-yl)-1H-thieno[3,2-c]pyrazol-3-yl)isobutyramide], for which the melting point was > 240 °C. In addition, the IC50 at GSK-3β was determined as 15 ± 0.3 nM.

`CCCS(=O)(=O)Nc1n[nH]c2cc(-c3cccnc3)sc12` [Compound 16d, N-(5-(pyridin-3-yl)-1H-thieno[3,2-c]pyrazol-3-yl)propane-1-sulphonamide]: the melting point was 208 to 210 °C. In addition, at GSK-3β, the “GSK-3β inhibitory activity (in words)” value is given as “very weak” and the IC50 came to 1390 ± 55.2 nM.

Consider `[Cl-].[Li+]` [LiCl, reference compound], for which the “p-GSK-3β/GAPDH ratio (Ser9)” value in series [1] worked out at 0.60.

On to `CC(C)C(=O)Nc1n[nH]c2cc(-c3cncc(-c4ccccc4)c3)sc12` [Compound 17b, N-(5-(5-Phenylpyridin-3-yl)-1H-thieno[3,2-c]pyrazol-3-yl)isobutyramide], for which the melting point is > 240 °C. Moreover, at GSK-3β, the “fold less active than 16b (GSK-3β inhibition)” value is given as “about 4 fold” and the IC50 is 14 ± 0.6 nM.

Turning to `O=C(Nc1n[nH]c2cc(-c3cccnc3)sc12)c1ccccc1` [Compound 16e, N-(5-(pyridin-3-yl)-1H-thieno[3,2-c]pyrazol-3-yl)benzamide], the melting point is > 240 °C. In addition, on GSK-3β, the “fold less active than 16b (GSK-3β inhibition)” value is “about 10 fold” and the IC50 came to 33 ± 1.6 nM.

For the compound `CC(C)C(=O)Nc1n[nH]c2cc(-c3cnccc3-c3ccc(-c4ccccc4)cc3)sc12` [Compound 18m, N-(5-(4-([1,1'-Biphenyl]-4-yl)pyridin-3-yl)-1H-thieno[3,2-c]pyrazol-3-yl)isobutyramide], the melting point was 159 to 161 °C. Besides, the IC50 at GSK-3β came out at 387 ± 21.2 nM.

As to `CC(C)C(=O)Nc1n[nH]c2cc(-c3cnccc3-c3cccc(F)c3)sc12` [Compound 18i, N-(5-(4-(3-Fluorophenyl)pyridin-3-yl)-1H-thieno[3,2-c]pyrazol-3-yl)isobutyramide], the melting point is > 240 °C. Further, the IC50 at GSK-3β was found to be 173 ± 6.8 nM.

In turn, `Cc1ccc(-c2ccncc2-c2cc3[nH]nc(NC(=O)C(C)C)c3s2)cc1` [Compound 18d, N-(5-(4-(4-Methylphenyl)pyridin-3-yl)-1H-thieno[3,2-c]pyrazol-3-yl)isobutyramide] gave a melting point of 239 to 240 °C. For the same compound, the IC50 on GSK-3β was determined as 99 ± 4.8 nM.

In the case of `CC(C)C(=O)Nc1n[nH]c2cc(-c3cnccc3-c3ccc4ccccc4c3)sc12` [Compound 18n, N-(5-(4-(naphthalen-2-yl)pyridin-3-yl)-1H-thieno[3,2-c]pyrazol-3-yl)isobutyramide], the melting point was > 240 °C. In addition, the “fold less active than 18a (GSK-3β inhibition)” value at GSK-3β (compared with 18a) is given as “about 2 fold”. In addition, the IC50 on GSK-3β came out at 195 ± 10.4 nM.

In the case of `CCCS(=O)(=O)Nc1n[nH]c2cc(-c3cncc(-c4ccccc4)c3)sc12` [Compound 17d, N-(5-(5-Phenylpyridin-3-yl)-1H-thieno[3,2-c]pyrazol-3-yl)propane-1-sulphonamide], the melting point was in the range of 112 to 114 °C. In addition, at GSK-3β, the “GSK-3β inhibitory activity (in words)” value is reported as “not active” and the IC50 was > 5000 nM.

Take `O=C(Nc1n[nH]c2cc(-c3cccnc3)sc12)C1CC1` [Compound 16a, N-(5-(pyridin-3-yl)-1H-thieno[3,2-c]pyrazol-3-yl)cyclopropanecarboxamide]: the melting point was in the range of 224 to 226 °C. The IC50 on GSK-3β came to 4.4 ± 0.2 nM.

`CCCC(=O)Nc1n[nH]c2cc(-c3cccnc3)sc12` [Compound 16c, N-(5-(pyridin-3-yl)-1H-thieno[3,2-c]pyrazol-3-yl)butyramide] had a melting point of 238 to 240 °C. Also, on GSK-3β, the “fold less active than 16b (GSK-3β inhibition)” value was “about 10 fold” and the IC50 was found to be 36 ± 1.7 nM.

Consider `CC(C)C(=O)Nc1n[nH]c2cc(-c3cnccc3-c3ccccc3)sc12` [Compound 18a, N-(5-(4-Phenylpyridin-3-yl)-1H-thieno[3,2-c]pyrazol-3-yl)isobutyramide], for which the melting point was > 240 °C. Moreover, the IC50 on GSK-3β stood at 84 ± 3.2 nM.

In turn, `Cc1cccc(-c2ccncc2-c2cc3[nH]nc(NC(=O)C(C)C)c3s2)c1` [Compound 18c, N-(5-(4-(3-Methylphenyl)pyridin-3-yl)-1H-thieno[3,2-c]pyrazol-3-yl)isobutyramide] displayed a melting point of 236 to 238 °C. Further, the IC50 on GSK-3β is 153 ± 6.6 nM.
